We go through 1 substance from patent US20230331827A1, “POTASSIUM CHANNEL INHIBITORS” (priority 2017, published 2023).

This assay concerns trypsin. The assay is described as follows: Phage TRF binding assay on immobilised biotinylated trypsin (monoclonal phage ELISA). Conditions: presented on phage as direct N-terminus gene-III fusion. The procedure:
Phage display technology facilitates isolation of binders to any given target from large combinatorial repertoires based on proteins and peptides that can be presented on the surface of filamentous phage^105. In order to isolate functional knottin-antibody fusions from the KnotBody libraries multiple rounds of phage display selections on trypsin (cognate antigen for the EETI-II donor) were carried out. Phage particles were prepared by rescuing KnotBody libraries using trypsin cleavable helper phage ^102,106Two rounds of phage display selections were performed on 10 µg/ml biotinylated trypsin immobilised on Streptavidin (for Round-1) or Neutravidin (for round-2) coated Maxisorp™ immunotubes (Thermo Scientific, Cat No. 444202). In both rounds of selection, phage libraries were pre-incubated with streptavidin coated paramagnetic beads (Thermo Fisher Scientific, Cat. No. 11205D). […] Polyclonal phage preparations from round-2 selection outputs were analysed for trypsin binding using a time resolved fluorescence (TRF) binding assay. In this assay, polyclonal phage binding to biotinylated trypsin immobilised on neutravidin (Thermo Fisher Scientific, Cat. No 31000) coated Maxisorp™ plates (Thermo Scientific, Cat. No. 437111) was detected using a mouse anti-M13 antibody (GE Healthcare, Cat. No. 27-9420-01) followed by europium conjugated anti-mouse antibody (Perkin Elmer, Cat. No. AD0124). […]
(ELISA stands for enzyme-linked immunosorbent assay.)

Consider “Ecballium elaterium trypsin inhibitor-II [EETI-II, reference compound]”, for which the binding to trypsin result is “no detectable binding to trypsin”.
